Results taken from US20210179577A1, “AROMATIC SULFONAMIDE DERIVATIVES FOR THE TREATMENT OF ISCHEMIC STROKE” (Bayer Aktiengesellschaft, priority 2017, published 2021).

Experiments:
Format in all cases: cell-based
human P2X4 [1] = target: T1, human P2X4 (Homo sapiens, UniProt Q99571); experiment: FLIPR assay, human P2X4 1321N1 Astrocytoma Cells; design: expressed in transfected cells; details: 1321N1 Astrocytoma cells
T1 sequence (Q99571 1-388): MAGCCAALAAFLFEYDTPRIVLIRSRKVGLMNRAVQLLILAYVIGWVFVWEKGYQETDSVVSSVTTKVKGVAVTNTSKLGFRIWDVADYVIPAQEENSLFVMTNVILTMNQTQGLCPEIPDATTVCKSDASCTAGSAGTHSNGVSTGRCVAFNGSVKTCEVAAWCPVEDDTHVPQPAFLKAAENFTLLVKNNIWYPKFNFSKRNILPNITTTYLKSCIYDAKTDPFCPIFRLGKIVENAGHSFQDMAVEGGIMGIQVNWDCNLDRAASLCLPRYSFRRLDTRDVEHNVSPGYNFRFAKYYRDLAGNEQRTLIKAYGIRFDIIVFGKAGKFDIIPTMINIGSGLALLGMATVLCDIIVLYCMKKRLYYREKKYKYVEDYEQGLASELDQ
Method: (§1) 1321N1 Astrocytoma cells stably expressing human P2X4 or rat P2X4 or mouse P2X4 were plated in Collagen ITO-treated microplate at a seeding density of 10000 cells/well and incubated overnight. P2X4 function was assessed by measuring intracellular calcium changes using the calcium-chelating dye Fluo8-AM (Molecular Devices) on a fluorescent imaging plate reader (FLEX/FLIPR station; Molecular Devices). On the day of the assay, the medium was removed and the cells were incubated for 30 min at […] and 5% CO2 in 30 μL of dye buffer (Hank's balanced salt solution, 10 mM HEPES, 1.8 mM CaCl2, 1 mM MgCl2, 2 mM probenecid, 5 mM D-glucose monohydrate, 5 μM Fluo8-AM, pH=7.4). Compounds diluted in probenecid buffer (Hank's balanced salt solution, 10 mM HEPES, 1.8 mM CaCl2, 1 mM MgCl2, 2 mM probenecid, 5 mM D-glucose monohydrate, pH=7.4) were added in a volume of 10 μL and allowed to incubate for 30 min at room temperature. The final assay DMSO concentration was 0.25%. The agonist, Mg-ATP (Sigma), was added in a volume of 10 μL at a concentration representing the EC80 value. EC80 was determined to be 0.5 μM for human and mouse P2X4 and 5 μM for rat P2X4. The fluorescence was measured for an interval of 120 sec at 2 sec intervals. The excitation and emission wavelengths used to monitor fluorescence were 470-495 nm and 515-575 nm, respectively. The data was analyzed based on the increase in peak relative fluorescence units (RFU) compared to the basal fluorescence and the data was normalized to the agonist control. The compounds were tested in triplicates per plate and mean values were plotted in Excel XLFit to determine IC50 values, percentage of maximal inhibition and the Hill coefficients.

rat P2X4 = target: T2, rat P2X4 (Rattus norvegicus, UniProt P51577); experiment: FLIPR assay, rat P2X4 1321N1 Astrocytoma Cells; details: 1321N1 Astrocytoma cells
T2 construct: expressed in transfected cells; host or cells: 1321N1 astrocytoma cells
T2 sequence (P51577 1-388): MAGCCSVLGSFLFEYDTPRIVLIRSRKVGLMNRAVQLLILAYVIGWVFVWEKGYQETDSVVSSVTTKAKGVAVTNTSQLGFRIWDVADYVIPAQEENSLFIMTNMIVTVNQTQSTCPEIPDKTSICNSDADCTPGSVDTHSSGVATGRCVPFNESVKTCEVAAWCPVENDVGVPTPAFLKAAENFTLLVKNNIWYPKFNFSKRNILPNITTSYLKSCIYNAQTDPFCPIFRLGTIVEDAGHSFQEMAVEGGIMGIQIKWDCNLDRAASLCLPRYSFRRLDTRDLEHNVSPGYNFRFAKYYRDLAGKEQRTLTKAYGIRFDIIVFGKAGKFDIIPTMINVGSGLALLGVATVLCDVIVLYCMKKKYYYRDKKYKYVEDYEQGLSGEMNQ
Method: as §1

mouse P2X4 = target: T3, mouse P2X4 (Mus musculus, UniProt Q9JJX6); experiment: FLIPR assay, mouse P2X4 1321N1 Astrocytoma Cells; details: 1321N1 Astrocytoma cells
T3 construct: expressed in transfected cells; host or cells: 1321N1 astrocytoma cells
T3 sequence (Q9JJX6 1-388): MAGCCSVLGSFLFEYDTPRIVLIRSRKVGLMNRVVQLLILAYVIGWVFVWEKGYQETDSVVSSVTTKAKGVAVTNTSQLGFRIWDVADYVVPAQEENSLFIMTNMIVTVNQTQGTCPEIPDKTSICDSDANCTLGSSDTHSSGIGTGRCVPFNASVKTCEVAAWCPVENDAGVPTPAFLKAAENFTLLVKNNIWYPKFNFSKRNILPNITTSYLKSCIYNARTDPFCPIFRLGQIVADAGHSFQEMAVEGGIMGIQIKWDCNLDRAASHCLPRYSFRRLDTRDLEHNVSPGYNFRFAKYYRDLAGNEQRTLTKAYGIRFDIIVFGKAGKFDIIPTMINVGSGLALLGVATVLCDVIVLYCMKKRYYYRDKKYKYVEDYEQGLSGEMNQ
Method: as §1

hP2X4 = target: T4, hP2X4 (Homo sapiens, UniProt Q99571); experiment: Human P2X4 HEK Cell Electrophysiology Assay B (QPatch); details: ATP 5 microM, -90 mV; read-out: Human P2X4 HEK Cells (QPatch Electrophysiology) avg IC50
T4 construct: expressed in transfected cells; host or cells: HEK-293 mito-Photina, clone 2a/4
T4 sequence (Q99571 1-388): T1 sequence (Q99571 1-388)
Method: Cell culture conditions: HEK-293 mito-Photina pcDNA3(neo-)/pPURO N/pcDNA3_P2RX4, clone 2a/4 (HEK-293 mito-Photina/hP2RX4) cells were cultured in EMEM Minimum Essential Medium Eagle with Earl's salts Balanced Salt Solution (BioWhittaker cat. BE12-125F) supplemented with 5 mL of 200 mM Ultraglutaminel (BioWhittaker cat. BE17-605E/U1), 5 mL of 100× Penicillin/Streptomycin (BioWhittaker cat. DE17-602E; final concentration 1%), 4 mL of 50 mg/mL G418 (Sigma cat. G8168-100 mL; final concentration 400 μg/mL), 10 μL of 10 mg/mL Puromicin (InvivoGen cat. ant-pr-1; final concentration 0.2 μg/mL) and 50 mL of Fetal Bovine Serum (Sigma cat. F7524; final concentration 10%).
Experimentalprotocol: HEK-293 cell lines are seeded 72 or 96 hours before experiment, at a concentration of 5 or 2.5 million cells, respectively onto a T225 flask. Just before the experiments cells are washed twice with D-PBS w/o Ca2+/Mg2+(Euroclone cat. ECB4004L) and detached from the flask with trypsin-EDTA (Sigma, cat. T4174 diluted 1/10). Cells are then re-suspended in the suspension solution: 25 mL EX-CELL ACF CHO medium (Sigma, cat. C5467); 0.625 mL HEPES (BioWhittaker, cat. BE17-737E); 0.25 mL of 100× Penicillin/Streptomycin (BioWhittaker, cat. DE17-602E), 0.1 mL of Soybean Trypsin Inhibitor 10 mg/mL (Sigma, cat. T6522) and placed on the QPatch 16X.
Compound preparation and storage: Compound stock solutions (10 mM; 100% DMSO; stored at −20° C.) were used. Fresh solutions from stock (1 or 3 mM, 100% DMSO) were prepared just before the experiments (0.1% final DMSO concentration).
Patch clamp analysis with QPatch16X (FIG. 1): Standard whole-cell voltage clamp experiments are performed at room temperature using the multihole technology.
For the voltage clamp experiments on hP2X4, data are sampled at 2 KHz. After establishment of the seal and the passage in the whole cell configuration, the cells are held at −90 mV and the hP2X4 current is evoked by the agonist in the absence (vehicle period, i.e. 0.1% DMSO) or in the presence of the compound under investigation at increasing concentrations; see the application protocol in FIG. 1.
Output: the maximum inward current induced by the agonist (ATP 5 microM).
The intracellular solution contained (mM) 135 CsF, 10 NaCl, 1 EGTA, 10 HEPES (pH 7.2 with CsOH) whereas the extracellular solution (mM) 145 NaCl, 4 KCl, 0.5 MgCl2, 1 CaCl2, […], 10 Glucose (pH 7.4 with NaOH).
For data collection, the Sophion software was used and the analysis was performed off-line using Excel and GraphPad Prism.
When possible, i.e. when the % of inhibition with the highest concentration tested was more than 50%, the dose-response curves data were fitted with the following equation:
[X is log of concentration; Y is normalized response (100% down to 0%, decreasing as X increases); Log IC50 same log units as X; HillSlope is unitless slope factor or hill slope]

human P2X4 [2] = target: T1, human P2X4; experiment: Human P2X4 HEK Cell FLIPR Assay; design: expressed in transfected cells; host or cells: HEK293; details: HEK293 cells, agonist Bz-ATP at EC80
Method: HEK293 cells stably expressing human P2X4 were plated in poly-D-lysine-coated 384-well plates at a seeding density of 30000 cells/well and incubated overnight. P2X4 function was assessed by measuring intracellular calcium changes using the calcium-chelating dye Fluo8-AM (Molecular Devices) on a fluorescent imaging plate reader (FLEX/FLIPR station; Molecular Devices). On the day of the assay, the medium was removed and the cells were incubated for 30 min at 37° C. and 5% CO2 in 30 μL of dye buffer (Hank's balanced salt solution, 10 mM HEPES, 1.8 mM CaCl2, 1 mM MgCl2, 2 mM probenecid, 5 mM D-glucose monohydrate, 5 μM Fluo8-AM, pH=7.4). Compounds diluted in probenecid buffer (Hank's balanced salt solution, 10 mM HEPES, 1.8 mM CaCl2, 1 mM MgCl2, 2 mM probenecid, 5 mM D-glucose monohydrate, pH=7.4) were added in a volume of 10 μL and allowed to incubate for 30 min at room temperature. The final assay DMSO concentration was 0.5%. The agonist, Bz-ATP (Tocris), was added in a volume of 10 μL at a concentration representing the EC80 value. The EC80 value of Bz-ATP was determined each assay day prior to compound profiling. The fluorescence was measured for an interval of 120 sec at 2 sec intervals. The excitation and emission wavelengths used to monitor fluorescence were 470-495 nm and 515-575 nm, respectively. The data was analyzed based on the increase in peak relative fluorescence units (RFU) compared to the basal fluorescence and the data was normalized to the agonist control. The compounds were tested in triplicates per plate and mean values were plotted in Excel XL-Fit to determine IC50 values, percentage of maximal inhibition and the Hill coefficients.

Compound	EC80 of the agonist, human P2X4 (human P2X4 [1]) [nM]	EC80 of the agonist, rat P2X4 (rat P2X4) [nM]	EC80 of the agonist, mouse P2X4 (mouse P2X4) [nM]	IC50 (hP2X4) [nM]	IC50 (human P2X4 [2]) [nM]
Nc1ncnc2c1ncn2[C@@H]1O[C@H](COP(=O)(O)OP(=O)([O-])OP(=O)([O-])O)[C@@H](O)[C@H]1O.[Mg+2] [Mg-ATP, reference compound]	500	5000	500	–	–
NS(=O)(=O)c1cc(NC(=O)Cc2ccccc2F)cnc1-n1cc(C(F)(F)F)cn1 [Example 381, 2-(2-Fluorophenyl)-N-{5-sulfamoyl-6-[4-(trifluoromethyl)-1H-pyrazol-1-yl]pyridin-3-yl}acetamide]	–	–	–	2580	1240
Cn1cc(-c2ccc(NC(=O)Cc3ccccc3Cl)cc2S(N)(=O)=O)cn1 [Example 360, 2-(2-Chlorophenyl)-N-[4-(1-methyl-1H-pyrazol-4-yl)-3-sulfamoylphenyl]acetamide]	–	–	–	205	132
